This note sets out measurements from patent US20190359653A1, “SELECTIVE PEPTIDE INHIBITORS OF FRIZZLED” (Genentech, Inc., priority 2016, published 2019).

The experiment deals with Wnt3a-mediated β-catenin signaling in HEK293-TB cells. It is filed as cell-based.

In the case of LPSDDAEFWCHVMY [dFz7-21-L6A], the “reduction in cellular potency” value is recorded as around 800 fold.
